Among the data in ChEMBL document CHEMBL3132769, “Fragment growing to retain or alter the selectivity of anchored kinase hinge-binding fragments” (Medchemcomm, 2014) are inhibition values, retold here.

Test [1] concerns T1, Receptor-type tyrosine-protein kinase FLT3 (Homo sapiens), P36888 [D835Y].
T1 sequence (whole entry): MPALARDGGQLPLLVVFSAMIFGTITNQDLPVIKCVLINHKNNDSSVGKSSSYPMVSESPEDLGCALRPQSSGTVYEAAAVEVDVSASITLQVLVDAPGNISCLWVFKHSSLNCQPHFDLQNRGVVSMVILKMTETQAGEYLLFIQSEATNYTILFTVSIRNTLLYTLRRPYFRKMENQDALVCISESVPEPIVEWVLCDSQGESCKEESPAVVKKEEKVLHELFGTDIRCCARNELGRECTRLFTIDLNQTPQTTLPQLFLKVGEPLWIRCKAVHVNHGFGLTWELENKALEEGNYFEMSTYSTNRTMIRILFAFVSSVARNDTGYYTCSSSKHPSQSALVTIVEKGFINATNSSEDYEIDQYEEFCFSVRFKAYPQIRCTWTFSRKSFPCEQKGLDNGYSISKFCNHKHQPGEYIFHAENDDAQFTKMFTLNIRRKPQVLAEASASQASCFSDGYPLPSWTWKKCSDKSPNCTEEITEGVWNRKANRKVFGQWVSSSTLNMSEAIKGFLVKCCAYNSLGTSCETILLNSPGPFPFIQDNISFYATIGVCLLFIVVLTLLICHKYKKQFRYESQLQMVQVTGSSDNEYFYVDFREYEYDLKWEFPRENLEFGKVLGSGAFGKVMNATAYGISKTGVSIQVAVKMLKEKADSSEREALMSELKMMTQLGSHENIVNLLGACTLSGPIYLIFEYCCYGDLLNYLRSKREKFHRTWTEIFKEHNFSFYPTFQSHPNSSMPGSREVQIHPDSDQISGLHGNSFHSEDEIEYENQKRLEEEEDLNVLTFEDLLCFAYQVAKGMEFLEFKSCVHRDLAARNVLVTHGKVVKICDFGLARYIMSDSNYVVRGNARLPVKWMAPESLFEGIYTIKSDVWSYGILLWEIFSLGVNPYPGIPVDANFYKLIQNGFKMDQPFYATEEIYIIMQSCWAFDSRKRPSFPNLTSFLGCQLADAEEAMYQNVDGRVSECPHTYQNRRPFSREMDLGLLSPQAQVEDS
Put plainly: Inhibition of human FLT3 D835Y mutant catalytic domain expressed in baculovirus assessed as substrate phosphorylation using fluorescence-labelled peptides as substrate at 0.2 uM after 90 mins by microfluidic peptide phosphorylation assay.

Test [2] addresses T2, Serine/threonine-protein kinase D2 (Homo sapiens) (UniProt Q9BZL6).
T2 sequence (whole entry): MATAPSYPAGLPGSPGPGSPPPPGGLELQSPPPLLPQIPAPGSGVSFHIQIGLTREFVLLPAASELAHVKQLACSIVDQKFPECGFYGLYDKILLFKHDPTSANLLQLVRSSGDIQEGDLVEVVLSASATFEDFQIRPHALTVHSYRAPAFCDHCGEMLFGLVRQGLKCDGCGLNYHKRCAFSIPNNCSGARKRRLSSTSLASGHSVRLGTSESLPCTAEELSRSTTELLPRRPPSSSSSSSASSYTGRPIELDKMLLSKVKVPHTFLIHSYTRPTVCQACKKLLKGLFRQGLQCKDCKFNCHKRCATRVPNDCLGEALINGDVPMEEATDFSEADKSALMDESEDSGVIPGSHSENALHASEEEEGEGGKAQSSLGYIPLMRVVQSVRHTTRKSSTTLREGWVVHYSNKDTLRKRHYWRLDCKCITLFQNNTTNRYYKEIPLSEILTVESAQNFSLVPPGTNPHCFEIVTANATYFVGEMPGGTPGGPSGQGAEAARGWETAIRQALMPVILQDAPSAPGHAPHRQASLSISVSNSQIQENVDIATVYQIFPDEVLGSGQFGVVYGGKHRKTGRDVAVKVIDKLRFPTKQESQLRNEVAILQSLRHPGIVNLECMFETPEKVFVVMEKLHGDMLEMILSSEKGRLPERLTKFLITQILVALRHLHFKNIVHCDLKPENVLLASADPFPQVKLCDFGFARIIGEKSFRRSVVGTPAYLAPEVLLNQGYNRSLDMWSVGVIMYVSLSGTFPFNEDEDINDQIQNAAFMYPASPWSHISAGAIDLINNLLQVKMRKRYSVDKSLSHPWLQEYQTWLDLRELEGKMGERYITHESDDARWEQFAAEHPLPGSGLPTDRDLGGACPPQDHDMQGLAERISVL
The test can be described thus: Inhibition of human full length PKD2 expressed in baculovirus assessed as substrate phosphorylation using fluorescence-labelled peptides as substrate at 0.2 uM after 90 mins by microfluidic peptide phosphorylation assay.

For test [3], the species on record is Homo sapiens. Put plainly: Inhibition of human full length PKA expressed in baculovirus assessed as substrate phosphorylation using fluorescence-labelled peptides as substrate at 95 uM after 90 mins by microfluidic peptide phosphorylation assay.
In test [4] the target is T3, Serine/threonine-protein kinase Nek2 (Homo sapiens) (UniProt P51955).
T3 sequence (whole entry): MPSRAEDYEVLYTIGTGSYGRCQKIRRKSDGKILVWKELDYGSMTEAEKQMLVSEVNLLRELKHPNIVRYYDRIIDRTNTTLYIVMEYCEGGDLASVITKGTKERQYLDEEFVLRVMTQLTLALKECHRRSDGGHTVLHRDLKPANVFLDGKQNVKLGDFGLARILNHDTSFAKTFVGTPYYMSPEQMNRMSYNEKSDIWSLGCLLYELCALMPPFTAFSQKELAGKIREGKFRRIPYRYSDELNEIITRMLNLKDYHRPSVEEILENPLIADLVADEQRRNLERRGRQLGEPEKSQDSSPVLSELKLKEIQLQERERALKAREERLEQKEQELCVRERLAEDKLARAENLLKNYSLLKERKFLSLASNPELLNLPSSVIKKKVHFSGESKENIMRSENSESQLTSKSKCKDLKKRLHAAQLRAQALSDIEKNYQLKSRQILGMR
Put plainly: Inhibition of human full length NEK2 expressed in baculovirus assessed as substrate phosphorylation using fluorescence-labelled peptides as substrate at 9 uM after 90 mins by microfluidic peptide phosphorylation assay.

For test [5], the target named is Ribosomal protein S6 kinase alpha-5 (Homo sapiens) (UniProt O75582). The test can be described thus: Inhibition of human full length MSK1 expressed in baculovirus assessed as substrate phosphorylation using fluorescence-labelled peptides as substrate at 8 uM after 90 mins by microfluidic peptide phosphorylation assay.
Ribosomal protein S6 kinase alpha-5 (Homo sapiens), sequence (O75582 whole entry, looked up, the tested form may be a part): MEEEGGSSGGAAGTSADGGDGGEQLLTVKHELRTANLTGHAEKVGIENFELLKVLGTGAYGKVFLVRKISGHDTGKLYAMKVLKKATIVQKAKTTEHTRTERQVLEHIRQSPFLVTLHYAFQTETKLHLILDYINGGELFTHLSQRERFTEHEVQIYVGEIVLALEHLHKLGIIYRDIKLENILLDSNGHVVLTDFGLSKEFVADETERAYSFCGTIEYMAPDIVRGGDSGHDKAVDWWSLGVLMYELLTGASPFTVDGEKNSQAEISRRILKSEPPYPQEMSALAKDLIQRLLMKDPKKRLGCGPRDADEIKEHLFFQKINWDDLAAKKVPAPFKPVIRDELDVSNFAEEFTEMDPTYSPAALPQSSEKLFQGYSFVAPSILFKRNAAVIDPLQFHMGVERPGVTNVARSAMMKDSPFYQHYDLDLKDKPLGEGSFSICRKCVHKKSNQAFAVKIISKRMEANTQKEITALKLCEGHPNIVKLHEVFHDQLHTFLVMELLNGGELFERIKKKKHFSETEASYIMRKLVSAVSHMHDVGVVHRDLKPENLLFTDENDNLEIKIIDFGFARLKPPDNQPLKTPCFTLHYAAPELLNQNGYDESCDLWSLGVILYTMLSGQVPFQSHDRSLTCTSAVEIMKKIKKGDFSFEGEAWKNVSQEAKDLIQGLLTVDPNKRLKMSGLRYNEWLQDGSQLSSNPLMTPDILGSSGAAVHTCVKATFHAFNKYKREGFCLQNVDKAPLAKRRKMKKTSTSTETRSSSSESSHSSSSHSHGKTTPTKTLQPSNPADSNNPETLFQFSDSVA
Test [6] addresses Fibroblast growth factor receptor 2 (Homo sapiens) (UniProt P21802). The test can be described thus: Inhibition of human FGFR2 catalytic domain expressed in baculovirus assessed as substrate phosphorylation using fluorescence-labelled peptides as substrate at 2 uM after 90 mins by microfluidic peptide phosphorylation assay.

As usually defined, the inhibition is the percentage by which the read-out fell short of the control.

Fibroblast growth factor receptor 2 (Homo sapiens), sequence (P21802 22-821 limits assumed): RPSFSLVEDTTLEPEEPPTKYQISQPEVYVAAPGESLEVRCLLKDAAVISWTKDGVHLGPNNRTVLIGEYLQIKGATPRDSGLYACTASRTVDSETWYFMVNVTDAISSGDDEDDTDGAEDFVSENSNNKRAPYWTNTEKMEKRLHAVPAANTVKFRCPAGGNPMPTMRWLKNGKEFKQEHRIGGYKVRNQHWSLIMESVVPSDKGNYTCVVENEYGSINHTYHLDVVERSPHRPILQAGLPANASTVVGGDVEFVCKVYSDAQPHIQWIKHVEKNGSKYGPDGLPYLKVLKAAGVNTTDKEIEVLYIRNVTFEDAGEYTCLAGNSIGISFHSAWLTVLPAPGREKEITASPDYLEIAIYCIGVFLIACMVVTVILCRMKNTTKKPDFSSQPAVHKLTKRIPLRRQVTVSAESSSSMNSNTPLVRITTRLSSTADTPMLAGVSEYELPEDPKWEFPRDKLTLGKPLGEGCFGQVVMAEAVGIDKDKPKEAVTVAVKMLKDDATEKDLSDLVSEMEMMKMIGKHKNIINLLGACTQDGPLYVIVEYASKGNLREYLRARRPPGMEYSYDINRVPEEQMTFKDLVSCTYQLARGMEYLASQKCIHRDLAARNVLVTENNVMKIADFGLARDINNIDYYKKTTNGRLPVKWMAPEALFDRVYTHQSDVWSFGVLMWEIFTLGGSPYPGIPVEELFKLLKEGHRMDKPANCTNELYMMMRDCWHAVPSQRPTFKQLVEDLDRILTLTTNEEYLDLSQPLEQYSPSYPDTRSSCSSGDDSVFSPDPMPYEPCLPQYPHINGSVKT

For `Clc1ccc(C2(c3ccc(-c4ncnc5[nH]cnc45)cc3)CCNCC2)cc1`, the inhibition turned out to be 16% in test [1] and 13% in test [2].
As to `NCCc1ccc(-c2ncnc3[nH]cnc23)cc1`, the inhibition in test [3] is 97.5%.
As to `NCC1CN(c2ncnc3[nH]c4cnccc4c23)CCO1` (stereo unspecified), the inhibition in test [4] amounted to 6%.
For `NCC1CCN(c2ncnc3[nH]ccc23)CC1`, the inhibition in test [5] is 68%.
As for `NC1CCN(c2ncnc3[nH]ccc23)CC1`, the inhibition in test [6] is 1.5%.
